Source: the supplement of paper PMC12076712

What was measured:
Assay in all cases: pIC50, kinobeads binding competition
UniProt Q9NYL2 = biological target: UniProt Q9NYL2
Method in brief: (§1)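 pIC50 was obtained by fitting fold changes against vehicle to logistic dose-response curves with the R drc package, using biological duplicates. Kinobeads-bound proteins were digested and measured by TMT10 LC-MS/MS. Before this, either living Jurkat cells received nine compound concentrations (top 30 μM, 1:4 steps) for 60 min at 37 °C prior to lysis, or Jurkat lysate or a 1:1:1:1 HEK293/K-562/HepG2/placenta lysate mix received nine concentrations (top 30 μM, 1:5 steps) for 60 min at 4 °C.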

MAST4 = MAST4 (UniProt O15021)
Method in brief: as §1

UniProt Q99759 = biological target: T1, UniProt Q99759
T1 sequence (whole entry): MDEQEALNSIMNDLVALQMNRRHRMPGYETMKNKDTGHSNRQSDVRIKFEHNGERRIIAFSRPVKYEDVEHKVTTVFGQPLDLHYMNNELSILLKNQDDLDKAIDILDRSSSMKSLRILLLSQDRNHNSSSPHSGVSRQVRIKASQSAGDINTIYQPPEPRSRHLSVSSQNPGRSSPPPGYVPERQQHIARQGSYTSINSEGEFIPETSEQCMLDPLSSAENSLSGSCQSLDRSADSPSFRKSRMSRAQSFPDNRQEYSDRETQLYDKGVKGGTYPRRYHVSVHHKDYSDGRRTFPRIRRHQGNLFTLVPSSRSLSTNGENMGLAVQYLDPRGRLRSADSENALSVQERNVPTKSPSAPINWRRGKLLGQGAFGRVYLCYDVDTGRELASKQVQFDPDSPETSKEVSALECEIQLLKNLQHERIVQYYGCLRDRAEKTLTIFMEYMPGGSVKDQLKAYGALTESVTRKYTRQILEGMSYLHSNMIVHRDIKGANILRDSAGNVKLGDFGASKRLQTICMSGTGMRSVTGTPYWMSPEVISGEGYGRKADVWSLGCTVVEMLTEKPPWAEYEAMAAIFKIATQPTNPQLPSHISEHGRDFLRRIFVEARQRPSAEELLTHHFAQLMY
Method in brief: as §1

CLK1 = CLK1 (UniProt P49759)
Method in brief: as §1

MAST3 = MAST3 (UniProt O60307)
Method in brief: as §1

UniProt Q16584 = biological target: UniProt Q16584
Method in brief: as §1

UniProt O75582 = biological target: UniProt O75582
Method in brief: as §1

UniProt Q07912 = biological target: UniProt Q07912
Method in brief: as §1

UniProt P27361 = biological target: UniProt P27361
Method in brief: as §1

UniProt P50613 = biological target: UniProt P50613
Method in brief: as §1

UniProt P68400 = biological target: UniProt P68400
Method in brief: as §1

UniProt Q9H0K1 = biological target: UniProt Q9H0K1
Method in brief: as §1

SYK = SYK (UniProt P43405)
Method in brief: as §1

GAK = biological target: T2, GAK (UniProt O14976)
T2 sequence (whole entry): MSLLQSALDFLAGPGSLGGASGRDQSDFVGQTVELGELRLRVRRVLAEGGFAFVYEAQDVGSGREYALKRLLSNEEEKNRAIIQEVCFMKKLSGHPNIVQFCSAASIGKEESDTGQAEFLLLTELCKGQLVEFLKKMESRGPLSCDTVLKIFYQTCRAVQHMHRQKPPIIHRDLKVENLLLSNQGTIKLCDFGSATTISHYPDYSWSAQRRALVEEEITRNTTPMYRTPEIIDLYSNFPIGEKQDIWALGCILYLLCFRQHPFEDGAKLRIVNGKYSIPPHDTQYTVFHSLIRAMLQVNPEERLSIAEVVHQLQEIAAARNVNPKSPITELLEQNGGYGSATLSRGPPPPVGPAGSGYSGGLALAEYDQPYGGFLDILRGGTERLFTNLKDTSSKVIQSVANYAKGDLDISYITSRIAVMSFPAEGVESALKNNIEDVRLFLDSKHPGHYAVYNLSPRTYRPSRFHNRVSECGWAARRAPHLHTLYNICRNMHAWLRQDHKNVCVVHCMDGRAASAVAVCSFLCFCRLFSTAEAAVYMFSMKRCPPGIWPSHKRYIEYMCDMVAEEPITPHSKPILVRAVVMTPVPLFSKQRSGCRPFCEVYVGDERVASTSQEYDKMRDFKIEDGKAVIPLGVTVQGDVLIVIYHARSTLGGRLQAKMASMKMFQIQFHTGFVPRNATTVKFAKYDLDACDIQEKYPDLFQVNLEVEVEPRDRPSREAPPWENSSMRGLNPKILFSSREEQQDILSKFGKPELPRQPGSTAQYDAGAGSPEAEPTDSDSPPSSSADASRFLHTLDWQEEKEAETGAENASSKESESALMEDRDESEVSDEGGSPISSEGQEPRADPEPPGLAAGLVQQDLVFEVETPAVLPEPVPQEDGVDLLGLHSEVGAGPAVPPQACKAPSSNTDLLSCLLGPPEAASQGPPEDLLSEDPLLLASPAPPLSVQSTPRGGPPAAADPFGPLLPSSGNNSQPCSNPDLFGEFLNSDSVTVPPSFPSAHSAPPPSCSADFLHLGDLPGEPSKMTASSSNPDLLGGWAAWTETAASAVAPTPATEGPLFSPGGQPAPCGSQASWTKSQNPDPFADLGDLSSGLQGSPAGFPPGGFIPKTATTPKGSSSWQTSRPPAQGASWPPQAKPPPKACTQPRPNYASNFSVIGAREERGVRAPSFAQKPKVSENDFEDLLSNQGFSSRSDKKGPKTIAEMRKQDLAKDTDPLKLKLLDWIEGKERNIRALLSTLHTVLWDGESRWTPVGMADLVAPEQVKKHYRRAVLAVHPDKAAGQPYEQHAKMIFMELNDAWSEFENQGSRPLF
Method in brief: as §1

UniProt Q9BUB5 = biological target: UniProt Q9BUB5
Method in brief: as §1

MARK1 = MARK1 (UniProt Q9P0L2); conditions: cell material: Lysate mix
Method in brief: as §1

UniProt Q9BQI3 = biological target: UniProt Q9BQI3
Method in brief: as §1

UniProt O75582, sequence (O75582 whole entry, looked up): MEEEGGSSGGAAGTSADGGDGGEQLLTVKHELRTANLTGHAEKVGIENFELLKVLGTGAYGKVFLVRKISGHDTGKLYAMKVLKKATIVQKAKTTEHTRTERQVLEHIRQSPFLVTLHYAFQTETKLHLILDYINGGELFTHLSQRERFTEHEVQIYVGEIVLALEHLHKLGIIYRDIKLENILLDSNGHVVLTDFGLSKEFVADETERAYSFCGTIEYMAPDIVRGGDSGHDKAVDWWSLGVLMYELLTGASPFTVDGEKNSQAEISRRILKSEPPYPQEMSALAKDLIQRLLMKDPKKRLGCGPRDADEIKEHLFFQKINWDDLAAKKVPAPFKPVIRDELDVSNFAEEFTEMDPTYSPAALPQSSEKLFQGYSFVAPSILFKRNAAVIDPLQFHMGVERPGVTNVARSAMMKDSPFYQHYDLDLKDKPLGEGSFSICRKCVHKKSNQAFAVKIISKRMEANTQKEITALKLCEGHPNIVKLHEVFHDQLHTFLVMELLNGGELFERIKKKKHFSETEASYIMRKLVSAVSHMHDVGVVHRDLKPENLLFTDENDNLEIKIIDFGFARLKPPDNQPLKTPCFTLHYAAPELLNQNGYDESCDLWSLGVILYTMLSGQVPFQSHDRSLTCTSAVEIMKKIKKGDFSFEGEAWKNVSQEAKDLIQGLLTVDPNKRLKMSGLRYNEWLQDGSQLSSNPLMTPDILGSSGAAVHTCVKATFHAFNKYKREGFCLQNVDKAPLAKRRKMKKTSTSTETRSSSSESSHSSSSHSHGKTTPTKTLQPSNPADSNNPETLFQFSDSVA
UniProt Q07912, sequence (Q07912 whole entry, looked up): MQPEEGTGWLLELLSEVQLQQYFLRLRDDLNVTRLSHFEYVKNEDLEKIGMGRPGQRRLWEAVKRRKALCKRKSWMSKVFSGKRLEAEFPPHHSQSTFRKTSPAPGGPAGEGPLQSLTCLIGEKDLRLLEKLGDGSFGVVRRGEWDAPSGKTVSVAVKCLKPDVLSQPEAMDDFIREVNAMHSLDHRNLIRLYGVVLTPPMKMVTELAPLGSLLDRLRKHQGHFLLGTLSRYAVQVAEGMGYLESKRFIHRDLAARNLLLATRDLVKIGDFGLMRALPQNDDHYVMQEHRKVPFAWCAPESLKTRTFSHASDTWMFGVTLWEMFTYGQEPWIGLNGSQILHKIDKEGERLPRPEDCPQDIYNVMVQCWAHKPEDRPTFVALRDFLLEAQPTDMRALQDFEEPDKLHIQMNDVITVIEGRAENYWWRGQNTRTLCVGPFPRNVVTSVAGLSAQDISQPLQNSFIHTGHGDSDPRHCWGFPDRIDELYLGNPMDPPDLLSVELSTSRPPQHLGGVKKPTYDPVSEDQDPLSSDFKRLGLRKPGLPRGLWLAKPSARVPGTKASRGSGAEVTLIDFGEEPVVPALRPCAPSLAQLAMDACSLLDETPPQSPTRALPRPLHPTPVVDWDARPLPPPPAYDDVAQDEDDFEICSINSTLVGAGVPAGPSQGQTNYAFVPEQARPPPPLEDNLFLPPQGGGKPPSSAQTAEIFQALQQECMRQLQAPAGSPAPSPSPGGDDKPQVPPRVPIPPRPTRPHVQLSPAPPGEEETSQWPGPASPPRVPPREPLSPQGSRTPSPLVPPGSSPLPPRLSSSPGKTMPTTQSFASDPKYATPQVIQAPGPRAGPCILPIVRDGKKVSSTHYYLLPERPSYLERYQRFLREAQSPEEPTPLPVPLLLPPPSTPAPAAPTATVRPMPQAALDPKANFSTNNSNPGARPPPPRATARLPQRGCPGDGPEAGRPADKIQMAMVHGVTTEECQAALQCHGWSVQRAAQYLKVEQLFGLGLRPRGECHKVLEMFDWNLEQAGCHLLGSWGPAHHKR
MARK1, sequence (Q9P0L2 whole entry, looked up): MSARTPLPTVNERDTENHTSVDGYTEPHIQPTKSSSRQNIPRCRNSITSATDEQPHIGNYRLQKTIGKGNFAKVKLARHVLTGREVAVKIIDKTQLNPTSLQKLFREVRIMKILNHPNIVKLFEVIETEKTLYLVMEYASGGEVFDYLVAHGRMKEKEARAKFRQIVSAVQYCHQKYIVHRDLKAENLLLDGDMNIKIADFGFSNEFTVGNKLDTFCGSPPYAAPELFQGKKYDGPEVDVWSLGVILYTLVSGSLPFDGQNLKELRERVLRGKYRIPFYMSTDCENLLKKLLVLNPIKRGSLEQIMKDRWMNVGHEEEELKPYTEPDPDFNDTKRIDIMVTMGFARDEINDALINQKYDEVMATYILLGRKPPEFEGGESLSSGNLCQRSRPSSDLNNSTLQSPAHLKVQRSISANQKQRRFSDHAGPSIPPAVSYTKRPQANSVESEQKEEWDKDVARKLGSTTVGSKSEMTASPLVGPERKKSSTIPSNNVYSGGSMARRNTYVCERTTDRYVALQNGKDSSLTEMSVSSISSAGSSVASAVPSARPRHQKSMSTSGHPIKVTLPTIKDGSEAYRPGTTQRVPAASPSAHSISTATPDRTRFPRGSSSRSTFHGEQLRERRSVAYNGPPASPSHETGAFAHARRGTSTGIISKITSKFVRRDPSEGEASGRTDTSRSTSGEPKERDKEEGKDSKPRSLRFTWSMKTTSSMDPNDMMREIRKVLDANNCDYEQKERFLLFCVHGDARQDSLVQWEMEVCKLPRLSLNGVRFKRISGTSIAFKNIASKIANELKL
UniProt Q9NYL2, sequence (Q9NYL2 whole entry, looked up): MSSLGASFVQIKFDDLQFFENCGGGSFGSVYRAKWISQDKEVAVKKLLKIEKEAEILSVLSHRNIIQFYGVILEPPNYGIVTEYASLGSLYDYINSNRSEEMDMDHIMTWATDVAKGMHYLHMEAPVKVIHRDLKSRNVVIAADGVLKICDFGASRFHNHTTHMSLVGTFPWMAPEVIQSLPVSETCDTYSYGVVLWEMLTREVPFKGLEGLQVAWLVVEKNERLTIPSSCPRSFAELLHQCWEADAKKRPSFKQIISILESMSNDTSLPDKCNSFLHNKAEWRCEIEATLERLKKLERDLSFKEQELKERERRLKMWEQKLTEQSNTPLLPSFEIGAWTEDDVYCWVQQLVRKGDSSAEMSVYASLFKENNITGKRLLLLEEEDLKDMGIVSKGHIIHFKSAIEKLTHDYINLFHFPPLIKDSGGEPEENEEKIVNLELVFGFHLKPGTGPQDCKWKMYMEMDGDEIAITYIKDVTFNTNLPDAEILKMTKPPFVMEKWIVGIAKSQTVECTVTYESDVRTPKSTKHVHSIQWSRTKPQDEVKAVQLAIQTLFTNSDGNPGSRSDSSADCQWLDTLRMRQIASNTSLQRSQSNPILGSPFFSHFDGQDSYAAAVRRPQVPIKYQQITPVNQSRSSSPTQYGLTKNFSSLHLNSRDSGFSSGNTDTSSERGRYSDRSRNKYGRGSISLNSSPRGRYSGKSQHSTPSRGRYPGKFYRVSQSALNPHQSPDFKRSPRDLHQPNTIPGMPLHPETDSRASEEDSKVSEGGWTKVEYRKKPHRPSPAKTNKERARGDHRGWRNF
MAST3, sequence (O60307 whole entry): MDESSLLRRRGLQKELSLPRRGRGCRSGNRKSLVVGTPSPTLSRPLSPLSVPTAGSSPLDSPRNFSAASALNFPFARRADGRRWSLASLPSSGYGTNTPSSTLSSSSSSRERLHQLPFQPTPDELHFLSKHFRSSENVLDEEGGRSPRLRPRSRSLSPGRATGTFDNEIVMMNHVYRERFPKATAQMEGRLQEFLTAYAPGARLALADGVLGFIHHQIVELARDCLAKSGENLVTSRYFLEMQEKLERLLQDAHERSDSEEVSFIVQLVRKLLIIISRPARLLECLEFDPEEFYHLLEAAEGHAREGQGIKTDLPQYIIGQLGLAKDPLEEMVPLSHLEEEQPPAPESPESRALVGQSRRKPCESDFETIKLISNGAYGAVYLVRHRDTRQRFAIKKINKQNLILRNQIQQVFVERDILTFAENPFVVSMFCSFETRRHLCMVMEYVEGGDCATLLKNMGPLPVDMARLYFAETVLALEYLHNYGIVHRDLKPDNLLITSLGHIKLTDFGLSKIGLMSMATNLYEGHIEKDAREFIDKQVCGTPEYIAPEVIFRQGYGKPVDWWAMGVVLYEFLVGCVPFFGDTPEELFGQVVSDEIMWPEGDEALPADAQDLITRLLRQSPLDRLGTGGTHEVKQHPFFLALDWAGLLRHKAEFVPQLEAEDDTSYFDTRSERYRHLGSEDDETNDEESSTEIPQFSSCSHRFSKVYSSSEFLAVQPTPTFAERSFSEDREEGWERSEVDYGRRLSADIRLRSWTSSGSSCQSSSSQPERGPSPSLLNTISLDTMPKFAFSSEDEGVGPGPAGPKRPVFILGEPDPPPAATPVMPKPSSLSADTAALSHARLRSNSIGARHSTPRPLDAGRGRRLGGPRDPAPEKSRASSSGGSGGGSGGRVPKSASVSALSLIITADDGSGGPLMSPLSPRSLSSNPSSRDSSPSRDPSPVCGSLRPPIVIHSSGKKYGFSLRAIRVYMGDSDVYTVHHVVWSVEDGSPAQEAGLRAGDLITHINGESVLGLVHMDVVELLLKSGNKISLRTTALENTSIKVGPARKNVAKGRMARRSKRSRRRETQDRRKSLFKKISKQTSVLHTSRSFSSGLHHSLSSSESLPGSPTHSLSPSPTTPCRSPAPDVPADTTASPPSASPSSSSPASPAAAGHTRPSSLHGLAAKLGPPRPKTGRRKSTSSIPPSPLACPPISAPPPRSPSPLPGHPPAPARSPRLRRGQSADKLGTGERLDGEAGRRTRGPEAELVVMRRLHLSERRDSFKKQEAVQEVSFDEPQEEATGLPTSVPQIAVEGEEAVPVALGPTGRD
UniProt P50613, sequence (P50613 whole entry): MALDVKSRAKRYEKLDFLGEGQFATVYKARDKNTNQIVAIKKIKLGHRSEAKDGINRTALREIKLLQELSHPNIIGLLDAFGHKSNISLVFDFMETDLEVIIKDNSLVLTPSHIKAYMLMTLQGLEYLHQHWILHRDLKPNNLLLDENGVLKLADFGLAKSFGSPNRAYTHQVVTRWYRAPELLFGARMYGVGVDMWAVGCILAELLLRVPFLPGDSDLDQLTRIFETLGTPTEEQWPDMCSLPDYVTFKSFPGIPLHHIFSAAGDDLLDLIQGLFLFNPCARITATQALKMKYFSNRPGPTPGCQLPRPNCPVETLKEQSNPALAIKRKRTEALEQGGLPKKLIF

In the case of `O=C(NCCNC(=O)c1cc(Nc2cc(C3CC3)[nH]n2)nc(N2CCN(Cc3ccc(S(=O)(=O)F)cc3)CC2)n1)OC1CC/C=C/CCC1` (stereo not drawn), the pIC50 (UniProt Q9NYL2; cell material: Jurkat cells) is reported as < 4.52, the pIC50 (UniProt Q9NYL2; cell material: Jurkat lysate) is reported as < 4.52 and the pIC50 (UniProt Q9NYL2; cell material: Lysate mix) is reported as < 4.52. It also gave a pIC50 (MAST4; cell material: Jurkat cells) of 6.3, a pIC50 (MAST4; cell material: Jurkat lysate) of 5.17 and a pIC50 (MAST4; cell material: Lysate mix) of 5.3. For the same molecule, the pIC50 (UniProt Q99759; cell material: Jurkat cells) was 4.88, the pIC50 (UniProt Q99759; cell material: Jurkat lysate) was < 4.52 and the pIC50 (UniProt Q99759; cell material: Lysate mix) was < 4.52. For the same molecule, the pIC50 (CLK1; cell material: Jurkat lysate) was < 4.52, the pIC50 (CLK1; cell material: Lysate mix) was < 4.52 and the pIC50 (MAST3; cell material: Jurkat cells) was 6.5. For the same molecule, the pIC50 (MAST3; cell material: Jurkat lysate) was 5.06, the pIC50 (MAST3; cell material: Lysate mix) was 4.9 and the pIC50 (UniProt Q16584; cell material: Jurkat cells) was 5.96. For the same molecule, the pIC50 (UniProt Q16584; cell material: Jurkat lysate) was < 4.52, the pIC50 (UniProt Q16584; cell material: Lysate mix) was < 4.52 and the pIC50 (UniProt O75582; cell material: Jurkat cells) was 5.6. For the same molecule, the pIC50 (UniProt O75582; cell material: Jurkat lysate) was < 4.52, the pIC50 (UniProt O75582; cell material: Lysate mix) was < 4.52 and the pIC50 (UniProt Q07912; cell material: Jurkat cells) was < 4.52. For the same molecule, the pIC50 (UniProt Q07912; cell material: Jurkat lysate) was < 4.52, the pIC50 (UniProt Q07912; cell material: Lysate mix) was < 4.52 and the pIC50 (UniProt P27361; cell material: Jurkat lysate) was < 4.52. For the same molecule, the pIC50 (UniProt P27361; cell material: Lysate mix) was < 4.52, the pIC50 (UniProt P50613; cell material: Jurkat cells) was 6.12 and the pIC50 (UniProt P50613; cell material: Jurkat lysate) was 4.7. The pIC50 (UniProt P68400; cell material: Jurkat lysate) was < 4.52, the pIC50 (UniProt P68400; cell material: Lysate mix) was < 4.52 and the pIC50 (UniProt Q9H0K1; cell material: Jurkat cells) was 5.62. For the same molecule, the pIC50 (UniProt Q9H0K1; cell material: Jurkat lysate) was < 4.52, the pIC50 (UniProt Q9H0K1; cell material: Lysate mix) was < 4.52 and the pIC50 (SYK; cell material: Jurkat cells) was 5.38. For the same molecule, the pIC50 (SYK; cell material: Jurkat lysate) was < 4.52, the pIC50 (SYK; cell material: Lysate mix) was < 4.52 and the pIC50 (GAK; cell material: Jurkat cells) was < 4.52. For the same molecule, the pIC50 (GAK; cell material: Jurkat lysate) was < 4.52, the pIC50 (GAK; cell material: Lysate mix) was < 4.52 and the pIC50 (UniProt Q9BUB5; cell material: Jurkat lysate) was < 4.52. The pIC50 (UniProt Q9BUB5; cell material: Lysate mix) was < 4.52, the pIC50 (MARK1) was < 4.52 and the pIC50 (UniProt Q9BQI3; cell material: Jurkat cells) was < 4.52. For the same molecule, the pIC50 (UniProt Q9BQI3; cell material: Jurkat lysate) was < 4.52 and the pIC50 (UniProt Q9BQI3; cell material: Lysate mix) was < 4.52.
In the case of `Cc1cc(Nc2cc(C(=O)NCCNC(=O)OC3CC/C=C/CCC3)nc(N3CCN(Cc4ccc(S(=O)(=O)F)cc4)CC3)n2)n[nH]1` (stereo not drawn), the pIC50 (UniProt Q9NYL2; cell material: Lysate mix) is reported as < 4.52, the pIC50 (MAST4; cell material: Lysate mix) is reported as 4.74 and the pIC50 (UniProt Q99759; cell material: Lysate mix) is reported as < 4.52. The pIC50 (CLK1; cell material: Lysate mix) was < 4.52, the pIC50 (MAST3; cell material: Lysate mix) was 4.84 and the pIC50 (UniProt Q16584; cell material: Lysate mix) was < 4.52. The pIC50 (UniProt O75582; cell material: Lysate mix) was < 4.52, the pIC50 (UniProt Q07912; cell material: Lysate mix) was < 4.52 and the pIC50 (UniProt P27361; cell material: Lysate mix) was < 4.52. For the same molecule, the pIC50 (UniProt P50613; cell material: Lysate mix) was < 4.52, the pIC50 (UniProt P68400; cell material: Lysate mix) was < 4.52 and the pIC50 (UniProt Q9H0K1; cell material: Lysate mix) was < 4.52. The pIC50 (SYK; cell material: Lysate mix) was < 4.52, the pIC50 (GAK; cell material: Lysate mix) was < 4.52 and the pIC50 (UniProt Q9BUB5; cell material: Lysate mix) was < 4.52. The pIC50 (MARK1) was < 4.52 and the pIC50 (UniProt Q9BQI3; cell material: Lysate mix) was < 4.52.
For `CCNC(=O)c1cc(Nc2cc(C3CC3)[nH]n2)nc(N2CCN(Cc3ccc(S(=O)(=O)F)cc3)CC2)n1`, the pIC50 (UniProt Q9NYL2; cell material: Lysate mix) was < 4.52, the pIC50 (MAST4; cell material: Lysate mix) was 6.37 and the pIC50 (UniProt Q99759; cell material: Lysate mix) was 5.08. For the same molecule, the pIC50 (CLK1; cell material: Lysate mix) was 5.44, the pIC50 (MAST3; cell material: Lysate mix) was 6.22 and the pIC50 (UniProt Q16584; cell material: Lysate mix) was 5.29. For the same molecule, the pIC50 (UniProt O75582; cell material: Lysate mix) was 5.35, the pIC50 (UniProt Q07912; cell material: Lysate mix) was < 4.52 and the pIC50 (UniProt P27361; cell material: Lysate mix) was 4.94. The pIC50 (UniProt P50613; cell material: Lysate mix) was 6.33, the pIC50 (UniProt P68400; cell material: Lysate mix) was 5.39 and the pIC50 (UniProt Q9H0K1; cell material: Lysate mix) was < 4.52. For the same molecule, the pIC50 (SYK; cell material: Lysate mix) was 6.22, the pIC50 (GAK; cell material: Lysate mix) was < 4.52 and the pIC50 (UniProt Q9BUB5; cell material: Lysate mix) was < 4.52. For the same molecule, the pIC50 (MARK1) was < 4.52 and the pIC50 (UniProt Q9BQI3; cell material: Lysate mix) was 5.06.
